In publication PMC5437278, “Targeting the deubiquitinase STAMBP inhibits NALP7 inflammasome activity” (Nature Communications, 2017):

Target: T1, STAMBP (purified, recombinant) (Homo sapiens, UniProt O95630)
T1 construct: commercial purified recombinant STAMBP (R&D Systems E-548B)
T1 sequence (O95630 1-424): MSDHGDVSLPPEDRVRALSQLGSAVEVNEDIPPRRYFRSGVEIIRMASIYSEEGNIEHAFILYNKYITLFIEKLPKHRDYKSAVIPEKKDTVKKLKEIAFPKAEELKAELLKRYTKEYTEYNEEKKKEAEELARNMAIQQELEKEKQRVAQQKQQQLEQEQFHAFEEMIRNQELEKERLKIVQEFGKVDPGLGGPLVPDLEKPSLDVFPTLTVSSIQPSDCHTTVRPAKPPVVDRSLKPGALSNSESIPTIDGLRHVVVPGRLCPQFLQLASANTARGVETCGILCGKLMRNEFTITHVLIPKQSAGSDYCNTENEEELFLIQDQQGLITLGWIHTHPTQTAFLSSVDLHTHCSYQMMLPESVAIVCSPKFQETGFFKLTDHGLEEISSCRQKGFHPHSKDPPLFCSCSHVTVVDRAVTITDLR
Assay: in vitro DUB assay, cleavage of K63-linked di-ubiquitin to mono-Ub, immunoblot
Format: biochemical
Conditions: 200 nM K63-linked di-Ub, 25 nM STAMBP, pH 7.5, 37 °C, 2 h; competitive

IC50: 0.33 µM
Substance: BC-1471
